The record followed here is ChEMBL document CHEMBL1201862, “PubChem BioAssay data set” (2004).

The structures appear in SMILES notation.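 Briefly, cells in 96-well plates were exposed to five compound concentrations for 48 h, and endpoints were estimated by linear interpolation. GI50 = concentration required for 50% inhibition of growth.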 Active and inactive are the calls of the source. Cut-off read from the data, not from the text of the source: active = GI50 up to about 1.1 µM and inactive = higher.

For one experiment, the system named is Hs-578T. Briefly: NCI tumour cell line growth inhibition, 48 h.
The test system of a further experiment is BT-549. Briefly: NCI tumour cell line growth inhibition, 48 h.

For the compound `CC[S+]1C2=C(CC(C)(C)CC2=O)[N-]c2ccccc21` (stereo unspecified), the GI50 is 78.3 µM (inactive) with Hs-578T and > 100 µM (inactive) in the experiment on BT-549.
The matching figures for `NNC(=O)c1ccc(OCc2nc3ccccc3[nH]2)cc1`: 28.1 µM (inactive) and 52.2 µM (inactive).
For `O=C1NN=C2C=C(c3ccc(Cl)cc3)CC(c3cccc(Cl)c3)C12` (stereo unspecified), the GI50 was 19.9 µM (inactive) in the experiment with Hs-578T and 58.2 µM (inactive) in the experiment with BT-549.
For `CCOC(O)(NC(=O)C(C(F)(F)F)C(F)(F)F)C(F)(F)F` (stereo unspecified), in that order: > 100 µM (inactive) and > 100 µM (inactive).
Take `Cn1nc(-c2ccc(S(=O)(=O)N/C(=N/c3ccc(Cl)cc3)NN)s2)cc1C(F)(F)F`: the GI50 in the experiment with BT-549 is 17.8 µM (inactive).
In the case of `O=S(=O)(O)c1cc(S(=O)(=O)O)c2c(/N=N/c3ccccc3)c(O)ccc2c1`, the GI50 in the experiment on Hs-578T and in the experiment with BT-549 was > 100 µM (inactive) in each case.
For the compound `Cn1c(O)c(C2=Nc3ccccc3C2=O)c2ccccc21`, the GI50 in the experiment with Hs-578T and in the experiment with BT-549 was > 100 µM (inactive) in each case.
On to `C[C@]12C[C@@H](OC(=O)[C@]1(C)O)[C@@H]([C@]1(O)CC[C@H]3[C@@H]4C[C@H]5O[C@]56C[C@H]5O[C@H]5C(=O)[C@]6(C)[C@H]4CC[C@@]31C)C2`, for which the GI50 in the experiment on Hs-578T is > 50 µM (inactive).
With `Cn1c2c(c3ccccc31)CC(=O)N1CCCC(C1)CC21OCCO1` (stereo unspecified), in the experiment with BT-549, the GI50 is > 100 µM (inactive).
Consider `O=C1C=CC(O)(C#CCO)C=C1`, for which the results for the GI50 in the experiment with Hs-578T and with BT-549 were 29.2 µM (inactive) and 12 µM (inactive), respectively.
Consider `Clc1ccc(-c2nn3c(-c4ccncc4)nnc3s2)cc1`, for which the GI50 with Hs-578T and in the experiment on BT-549 was > 100 µM (inactive) each time.
In the case of `CCCCCCCCSC1=C(Cl)C(=O)C(OC)=C(OC)C1=O`, the GI50 in the experiment on Hs-578T was 20.7 µM (inactive); in the experiment with BT-549 it was 14 µM (inactive).
Take `CC1=NN(c2nc(N)nc(CSCc3nc(N)nc(N(C)C)n3)n2)C(C)(C)C1`: the GI50 in the experiment on Hs-578T and in the experiment on BT-549 was > 100 µM (inactive) in each case.
For `O=c1c2c(F)c(F)c(F)c(F)c2sc2nccn12`, the GI50 in the experiment with Hs-578T was 31.3 µM (inactive).
As to `NCCCC[C@H](N)C(=O)Nc1ccc(-c2nc3ccccc3s2)cc1Cl`, in the experiment with Hs-578T, the GI50 was 16.3 µM (inactive).
On to `CC1CN=C(Nc2ccc(F)c(Cl)c2)S1` (stereo unspecified), for which the GI50 in the experiment with Hs-578T and in the experiment with BT-549 was > 100 µM (inactive) each time.
For the compound `CCCCNC(=O)Nc1c(C(N)=O)c2n(c1C(=O)OCC)CCCCC2`, the GI50 in the experiment with Hs-578T was 64.9 µM (inactive); with BT-549, > 100 µM (inactive).
Consider `Cc1cc2nc3c(N)nn(CCN(C)C)c3nc2cc1C`, for which the GI50 in the experiment with Hs-578T is 40.2 µM (inactive); in the experiment on BT-549 it was 57.9 µM (inactive).
On to `C#C[C@]1(O)CC[C@H]2[C@@H]3CCC4=C/C(=N\OCCN5CCCCC5)CC[C@]4(C)[C@H]3CC[C@@]21C`, for which the GI50 with Hs-578T is 3.53 µM (inactive); with BT-549 it was 5.89 µM (inactive).
Take `COc1ccc(OC)c2sc(N3C(=O)/C(=C/c4cccc([N+](=O)[O-])c4)N=C3c3ccccc3)nc12`: the values for the GI50 in the experiment with Hs-578T and with BT-549 were 51.9 µM (inactive) and 48.5 µM (inactive), respectively.
With `OCC1OC(n2nc(-c3ccccc3)nc2-c2cnccn2)C(O)C(O)C1O` (stereo unspecified), in the experiment on BT-549, the GI50 is > 100 µM (inactive).
Regarding `COc1ccc(C2NC(N)=C(C#N)C3=C2C(C)CCC3)cc1OC` (stereo unspecified), the GI50 with Hs-578T is 74.3 µM (inactive); in the experiment on BT-549, 68.2 µM (inactive).
`CSC(=S)N/N=C(\C)c1ccc(S(=O)(=O)N(C)c2ccccc2)cc1`: the GI50 with Hs-578T is 15.5 µM (inactive).
As to `COC(=O)c1c(C)[nH]c2c1cc(O)c1nc(C)c(C)nc12`, the GI50 in the experiment with Hs-578T is 45.9 µM (inactive); in the experiment on BT-549 it was > 100 µM (inactive).
Take `O=C1OC2(C(F)(F)F)Oc3ccccc3CN2C12CCCCC2` (stereo unspecified): the GI50 in the experiment with BT-549 was 28.4 µM (inactive).
`Brc1cccc(C2(CCCC3(c4cccc(Br)n4)OCCO3)OCCO2)n1`: the GI50 in the experiment with BT-549 was > 100 µM (inactive).
On to `NC1CNC(=O)c2c(Cl)sc(Cl)c21` (stereo unspecified), for which, in the experiment on Hs-578T, the GI50 was > 100 µM (inactive).
Still for that read-out and setting: under `COc1cccc(-c2cc(=O)c3cc(N4CCCCC4)ccc3[nH]2)c1` stands < 0.014 µM (active); under `COc1cc(/C=N/N=C(\N)NO)cc(OC)c1OC`, 42.2 µM (inactive).
